Activity calls are given as the source filed them.
Tests used:
[1] = target: Mothers against decapentaplegic homolog 3 (Homo sapiens, UniProt P84022); test: Smad3 binding inhibitors, lysate ELISA, dose response, cell lysate, secondary confirmation, chemiluminescent ELISA, HEK293 lysate (AID 1058); format: functional
[2] = target: Eukaryotic translation initiation factor 4H (Homo sapiens, UniProt Q15056); test: human eIF4H binding inhibitors, primary screen, translation initiation inhibitor project, biochemical, uHTS, fluorescence polarization (AID 2012)
[3] = target: Polyadenylate-binding protein 1 (Homo sapiens, UniProt P11940); test: PABP poly(A) RNA binding inhibitors, primary screen, biochemical, fluorescence polarization, uHTS (AID 2014)
Salmon testes DNA = test: DNA intercalators displacing acridine orange, dose response, artefact control for KSHV LANA DNA-binding inhibitor project, biochemical, fluorescence polarization, cherry-picked samples, set 2 (AID 504727); design: species or system Salmonidae
[4] = target: Neurotensin receptor type 1 (Homo sapiens, UniProt P30989); format: functional;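 note: Image-based confirmatory dose-response assay measuring agonist activity at NTR1; NTR1-expressing U2OS osteosarcoma cells imaged for beta-arrestin GFP spot formation; agonist potency where compounds increase beta-arrestin recruitment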
[5] = target: T1, Neuropeptide Y receptor type 2 (Homo sapiens, UniProt P49146); test: Fluorescence-based counterscreen for agonists of NPY-Y1: cell-based high-throughput dose response assay for agonists of NPY-Y2.; format: functional
HEK293 [6] = test: Fluorescence-based counterscreen for potentiators or agonists of NPY-Y1: cell-based high-throughput dose response assay for inhibitors of cyclic nucleotide gated ion channel (CNGC) activity. In this assay, the parental HEK293 cell line transfected with a cyclic-nucleotide gated ion channel (CNGC)-based cAMP sensor is used to measure inhibition of isoproterenol-induced CNGC …; format: functional; settings: Homo sapiens
[7] = target: T2, Neuropeptide Y receptor type 1 (Homo sapiens, UniProt P25929); test: Fluorescence-based dose response cell-based high-throughput screening assay for agonists of NPY-Y1. [Related pubchem assays: 1697 (Screening assay (NPY-Y1 agonists).), 1359 (Screening assay (NPY-Y2 potentiators or agonists).), 1304 (Screening assay (NPY-Y1 potentiators or agonists).), 1704 (Screening assay (CNGC inhibitors).), 1791 (Summary AID.)]; format: functional
[8] = target: Serine/threonine-protein phosphatase (Homo sapiens, UniProt Q9BPW0); test: Counterscreen for inhibitors of PP1: fluorescence-based biochemical high throughput dose response assay to identify inhibitors of Protein Phosphatase 5 (PP5). [Related pubchem assays: 2034 (Summary (PP5 inhibitors)), 1987 (PP5 inhibitors in singlate), 2235 (PP1 inhibitors in singlate)]
[9] = target: Serine/threonine-protein phosphatase PP1-alpha catalytic subunit (Homo sapiens, UniProt P62136); test: PP1 phosphatase inhibitors, dose response, biochemical, fluorescence (AID 2403);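 note: phosphatase turnover of OMFP into fluorescent 3-O-methylfluorescein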
Bcl-2-like protein 10 = Bcl-2-like protein 10 (Homo sapiens, UniProt Q9HD36); test: displacers of TR3 peptide from Bcl-B, primary screen, selectivity assay for Bfl-1 inhibitor project, biochemical, fluorescence polarization, FITC-TR3 peptide (AID 748);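 note: fluorescence polarization from a fluorescein-labelled TR3 peptide binding purified Bcl-B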
Estrogen receptor = target: T3, Estrogen receptor (Homo sapiens, UniProt P03372);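 note: potency for inhibiting coactivator peptide recruitment to the receptor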
T3 sequence (P03372 whole entry): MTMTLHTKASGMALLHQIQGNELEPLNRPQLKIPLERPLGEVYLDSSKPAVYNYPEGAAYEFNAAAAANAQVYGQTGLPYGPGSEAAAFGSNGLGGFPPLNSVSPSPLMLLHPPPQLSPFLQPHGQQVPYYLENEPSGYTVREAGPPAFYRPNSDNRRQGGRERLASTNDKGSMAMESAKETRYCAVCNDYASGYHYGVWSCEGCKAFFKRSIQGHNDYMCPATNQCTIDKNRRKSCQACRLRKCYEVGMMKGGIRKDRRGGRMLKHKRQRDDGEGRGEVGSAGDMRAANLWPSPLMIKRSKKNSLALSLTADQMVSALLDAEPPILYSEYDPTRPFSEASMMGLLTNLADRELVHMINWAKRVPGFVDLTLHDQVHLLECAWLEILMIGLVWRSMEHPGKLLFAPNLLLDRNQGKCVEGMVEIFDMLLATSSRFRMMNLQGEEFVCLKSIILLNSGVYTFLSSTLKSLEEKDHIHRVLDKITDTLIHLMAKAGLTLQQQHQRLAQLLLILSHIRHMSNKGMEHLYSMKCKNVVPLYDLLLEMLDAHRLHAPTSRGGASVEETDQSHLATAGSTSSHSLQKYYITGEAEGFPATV

[10] = HIV-1 Env-mediated cell fusion inhibitors, dose response, CCR5-tropic Env (AID 2279); format: functional
HEK293 [11] = test: Fluorescence-based counterscreen for potentiators or agonists of NPY-Y2: cell-based high-throughput dose response assay to identify inhibitors of cyclic nucleotide gated ion channel (CNGC) activity. In this assay, the parental HEK293 cell line transfected with a cyclic-nucleotide gated ion channel (CNGC)-based cAMP sensor is used to measure inhibition of isoproterenol-induced CNGC activity by test compound.; format: functional; settings: Homo sapiens
Aminopeptidase N = target: T4, Aminopeptidase N (Plasmodium falciparum FcB1/Columbia, UniProt O96935); test: P. falciparum M1AAP inhibitors, biochemical, fluorogenic H-Leu-NHMec substrate, 1536-well (AID 1445); design: species or system Plasmodium falciparum 3D7, 3D7
T4 sequence (O96935 whole entry): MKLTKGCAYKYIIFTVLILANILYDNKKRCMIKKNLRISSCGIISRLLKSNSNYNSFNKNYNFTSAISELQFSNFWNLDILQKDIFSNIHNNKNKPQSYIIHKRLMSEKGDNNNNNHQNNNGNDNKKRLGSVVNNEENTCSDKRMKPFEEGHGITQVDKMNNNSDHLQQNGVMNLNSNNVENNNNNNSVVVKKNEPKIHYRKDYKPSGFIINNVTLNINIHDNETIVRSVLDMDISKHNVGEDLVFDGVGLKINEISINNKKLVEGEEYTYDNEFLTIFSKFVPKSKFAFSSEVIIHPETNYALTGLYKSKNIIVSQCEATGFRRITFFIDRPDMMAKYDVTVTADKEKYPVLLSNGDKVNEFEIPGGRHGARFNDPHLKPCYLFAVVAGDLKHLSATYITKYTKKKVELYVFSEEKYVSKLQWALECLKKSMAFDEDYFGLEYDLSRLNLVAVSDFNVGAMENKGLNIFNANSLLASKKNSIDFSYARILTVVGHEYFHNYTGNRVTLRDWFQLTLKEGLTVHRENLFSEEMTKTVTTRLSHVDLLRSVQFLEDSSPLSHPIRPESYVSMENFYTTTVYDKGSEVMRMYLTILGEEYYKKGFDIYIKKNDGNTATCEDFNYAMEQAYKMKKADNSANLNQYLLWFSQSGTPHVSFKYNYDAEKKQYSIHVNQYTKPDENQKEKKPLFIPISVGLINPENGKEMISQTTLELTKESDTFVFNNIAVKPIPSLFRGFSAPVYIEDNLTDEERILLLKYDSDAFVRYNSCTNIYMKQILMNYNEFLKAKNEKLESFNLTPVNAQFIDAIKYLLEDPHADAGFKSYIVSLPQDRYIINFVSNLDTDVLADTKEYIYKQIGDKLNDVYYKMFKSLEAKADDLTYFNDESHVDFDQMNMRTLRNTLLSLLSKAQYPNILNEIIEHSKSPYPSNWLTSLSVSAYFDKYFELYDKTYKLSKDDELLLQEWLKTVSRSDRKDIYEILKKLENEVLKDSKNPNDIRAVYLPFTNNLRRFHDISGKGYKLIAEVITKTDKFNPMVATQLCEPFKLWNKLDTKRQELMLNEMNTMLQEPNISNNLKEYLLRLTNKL

[12] = target: T2, Neuropeptide Y receptor type 1; test: Fluorescence-based counterscreen for agonists of NPY-Y2: cell-based high-throughput dose response assay for agonists of NPY-Y1.; format: functional
[13] = target: T5, Probable nicotinate-nucleotide adenylyltransferase (Staphylococcus aureus (strain N315), UniProt P65502); format: functional, Staphylococcus aureus subsp. aureus N315; settings: read-out: IC50_Mean;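 for IC50 Mean: confirmatory dose-response retesting of NadD inhibitor hits first found in an ultra-high-throughput screen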
[14] = target: T5, Probable nicotinate-nucleotide adenylyltransferase; format: functional, Staphylococcus aureus subsp. aureus N315
[15] = target: T1, Neuropeptide Y receptor type 2; test: Fluorescence-based cell-based high-throughput dose response assay for agonists of NPY-Y2. [Related pubchem assays: 1703 (Screening assay (CNGC inhibitors).), 1359 (Screening assay (NPY-Y2 potentiators or agonists).), 1304 (Screening assay (NPY-Y1 potentiators or agonists).), 1710 (Screening assay (NPY-Y2 agonists).), 1791 (Summary AID.)]; format: functional
Vero = Vero cell cytotoxicity, cytotoxicity control for flavivirus capping enzyme inhibitors (AID 588742); format: functional; settings: Chlorocebus sabaeus
Cytochrome P450 2D6 = Cytochrome P450 2D6 (Homo sapiens, UniProt P10635); test: qHTS Assay for Inhibitors and Substrates of Cytochrome P450 2D6. [Related pubchem assays: 410 ]; format: ADME; settings: read-out: Potency
[16] = target: Acyl-homoserine lactone acylase PvdQ (Pseudomonas aeruginosa (strain LESB58), UniProt Q9I194); test: P. aeruginosa PvdQ acylase inhibitors, dose response, biochemical, fluorescence, plate reader and imaging, cherry-picks (AID 493231)
Prothrombin = Prothrombin (Bos taurus, UniProt P00735); test: thrombin inhibition, dose response, biochemical, fluorescence polarization, uHTS hits (AID 602369); format: functional
cells = settings: A549
[17] = target: 72 kDa type IV collagenase (Homo sapiens, UniProt P08253); test: Dose Response validation of uHTS RPN11 inhibitor hits using a MMP-2 Fluorescence assay.; format: functional
[18] = target: T6, Small ubiquitin-related modifier 1 (Homo sapiens, UniProt P63165); test: inhibitors of SUMO1 partner interactions, dose response, biochemical, FRET (AID 624383); format: functional; settings: read-out: IC50_Mean
Caspase-6 = target: T7, Caspase-6 (Homo sapiens, UniProt P55212); test: human caspase-6 inhibitors, dose response, biochemical, VEID-R110 fluorescence, cherry-pick (AID 720632)
T7 sequence (P55212 whole entry): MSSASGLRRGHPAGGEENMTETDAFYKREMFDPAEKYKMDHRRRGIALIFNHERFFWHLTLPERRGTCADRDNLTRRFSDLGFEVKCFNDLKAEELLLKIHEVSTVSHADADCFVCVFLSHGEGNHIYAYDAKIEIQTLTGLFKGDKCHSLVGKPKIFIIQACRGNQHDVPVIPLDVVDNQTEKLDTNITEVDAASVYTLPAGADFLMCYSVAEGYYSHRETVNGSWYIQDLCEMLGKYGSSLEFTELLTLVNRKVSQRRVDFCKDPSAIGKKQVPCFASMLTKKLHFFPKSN

[19] = target: 26S proteasome non-ATPase regulatory subunit 14 (Homo sapiens, UniProt O00487); test: inhibition of proteasome subunit RPN11 – biochemical, fluorescence polarization, uHTS hits, confirmation (AID 602368); format: functional
[20] = target: T6, Small ubiquitin-related modifier 1; test: inhibitors of SUMO1 peptide binding, dose response, biochemical, fluorescence polarization, uHTS hits (AID 624382); format: functional; settings: read-out: IC50_Mean
[21] = target: cAMP-dependent protein kinase catalytic subunit alpha (Homo sapiens, UniProt P17612); test: PKA catalytic subunit inhibitors, dose response, biochemical, Caliper mobility shift, dry powder samples (AID 504583)
[22] = HepG2 cell cytotoxicity, dose response, cytotoxicity control, ATP luminescence, cherry-pick, set 6 (AID 1053125); format: functional, cell-based
[23] = target: T8, Alkaline phosphatase, tissue-nonspecific isozyme (Homo sapiens, UniProt P05186)
T8 sequence (P05186 whole entry): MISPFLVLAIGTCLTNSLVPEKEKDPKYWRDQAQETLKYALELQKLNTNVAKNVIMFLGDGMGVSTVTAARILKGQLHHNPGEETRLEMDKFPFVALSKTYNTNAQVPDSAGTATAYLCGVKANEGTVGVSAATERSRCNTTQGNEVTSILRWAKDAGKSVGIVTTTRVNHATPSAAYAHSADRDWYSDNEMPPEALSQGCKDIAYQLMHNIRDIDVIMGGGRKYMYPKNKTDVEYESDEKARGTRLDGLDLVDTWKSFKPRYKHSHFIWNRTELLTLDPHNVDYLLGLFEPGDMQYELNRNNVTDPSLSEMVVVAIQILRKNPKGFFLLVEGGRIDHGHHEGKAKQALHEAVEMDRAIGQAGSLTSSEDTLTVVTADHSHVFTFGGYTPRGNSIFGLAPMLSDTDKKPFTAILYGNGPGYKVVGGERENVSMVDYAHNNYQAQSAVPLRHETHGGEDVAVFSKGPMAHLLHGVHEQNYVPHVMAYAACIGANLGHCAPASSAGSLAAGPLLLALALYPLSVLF

## CC1NC(C(=O)O)Cc2cc(O)c(O)cc21 (configuration not stated)
[1]
  IC50: > 50 µM (not active)

## CCN1C(NCC(C)C)=N[C@@H](c2cccc(C(F)(F)F)c2)C(C(=O)OC)=C1C
[2]
  IC50: > 100 µM (inactive)
[3]
  IC50: 10 µM (active)

## CSc1nc(SC(C)C(=O)O)c2c3c(sc2n1)COC(C)(C)C3 (configuration not stated)
Salmon testes DNA
  AC50: 90.3 µM (active)

## CC1CCC(C(C)C)C(OCC(O)CNC(C)c2ccccc2)C1 (configuration not stated)
[4]
  EC50: 21.5 µM (inactive)
[5]
  EC50: > 35.4 µM (not active)
HEK293 [6]
  IC50: > 35.4 µM (not active)
[7]
  EC50: > 35.4 µM (not active)

## CCOC(=O)c1cnc(-n2cc(C)cn2)nc1NCc1ccc2c(c1)OCO2
[8]
  IC50: > 67 µM (not active)
[9]
  IC50: 5.96 µM (active)

## CN(C)S(=O)(=O)N(CC(=O)N(Cc1ccccc1)Cc1ccccc1)c1ccccc1
Bcl-2-like protein 10
  IC50: 36.6 µM (active)
Estrogen receptor
  IC50: 24.9 µM (active)

## COc1ccccc1NS(=O)(=O)c1cccc(N2C(=O)/C(=C\Nc3ccccc3C(=O)O)c3ccccc3C2=O)c1
[10]
  IC50: 19.6 µM (active)
HEK293 [11]
  EC50: 13.4 µM (not active)
Aminopeptidase N
  IC50: 30.4 µM (active)
[12]
  EC50: > 11.8 µM (not active)
[13]
  IC50: 22.2 µM (active)
[14]
  IC50: 2.81 µM (active)
[15]
  EC50: 20.1 µM (not active)
Vero
  CC50: > 40 µM (active)

## COC(=O)NC(c1ccc(F)cc1)C(C(C)=O)C(=O)OC (configuration not stated)
Cytochrome P450 2D6
  AC50: 3.16 µM (inconclusive)

## O=C1NN(c2ccccc2)C(=O)C2C1C1C=CC2C12CC2 (configuration not stated)
[16]
  AC50: 18.8 µM (active)

## Nc1nc(-c2cc(O)ccc2[N+](=O)[O-])cc(-c2ccccc2)c1[N+](=O)[O-]
Prothrombin
  IC50: 53 µM (active)
cells
  AC50: 42.5 µM (active)
[17]
  IC50: > 100 µM (inactive)
[18]
  IC50: 9.51 µM (active)
Caspase-6
  AC50: 10.7 µM (active)
[19]
  IC50: 23.9 µM (active)
[20]
  IC50: > 66.6 µM (inactive)
[21]
  AC50: 1.11 µM (active)
[22]
  AC50: > 52 µM (inactive)

## Oc1ccccc1/C=N/Nc1cccc2cccnc12
[23]
  EC50: > 100 µM (not active)

Reference: ChEMBL document CHEMBL1201862, “PubChem BioAssay data set” (2004)
